Test results from ChEMBL document CHEMBL1122705, “Synthesis and pharmacological evaluation of an 8 beta-bis(2-chloroethyl)amino opiate as a nonequilibrium opioid receptor probe” (J Med Chem, 1984).

Legend:
Type in all cases: functional
Cavia porcellus [1] = species: Cavia porcellus; test: Agonist activity in guinea pig ileum at a concentration of 1 uM expressed as percent maximal response
Mus musculus [2] = species: Mus musculus; test: Agonist activity in mouse vas deferens at a concentration of 200 nM expressed as percent maximal response
Mus musculus [3] = species: Mus musculus; test: Inhibitory activity in mouse vas deferens, n=4
Cavia porcellus [4] = species: Cavia porcellus; test: Inhibitory activity in guinea pig longitudinal muscle preparation, n=2; settings: Muscle tissue

SMILES | Activity (Cavia porcellus [1]) [%] | Activity (Mus musculus [2]) [%] | IC50 (Mus musculus [3]) [nM] | IC50 (Cavia porcellus [4]) [nM]
CN1CCC23c4c5ccc(O)c4O[C@H]2C=C[C@H](N(CCCl)CCCl)[C@H]3C1C5 (some centres undefined) | 15 | 25 | – | –
CN1CCC23c4c5ccc(O)c4O[C@H]2C=C[C@H](N=[N+]=[N-])[C@H]3C1C5 (some centres undefined) | – | – | 46 | 335
